assay: gradient 5% acetonitrile 3 min, to 50% in 2 min, to 85% in 15 min, held 3 min, 100 µL/min; details: column: Zorbax Extend-C18 2.1 x 50 mm; eluents: water / acetonitrile, 0.1% formic acid
In short: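 Retention time was recorded from adduct peaks, which were picked computationally and each inspected manually. Pure standards ran in mixtures of ~100 molecules on HPLC coupled to a quadrupole time-of-flight mass spectrometer, in positive and negative ionization mode, through a Zorbax Extend-C18 column (2.1 × 50 mm, 1.8 μm) at 100 μL/min. Eluents were water and acetonitrile, each with 0.1% formic acid.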

In order of rising RP-LC retention time:
1. COC[C@@H]1CN(Cc2cccc(OC)n2)C[C@H]1c1ccncc1  536 s
2. CC(NC(=O)C1CCN(c2cncnc2N2CCOCC2)CC1)c1ccccn1 (configuration not stated)  547 s
3. C=CCN1CCN(C(=O)c2ccc3c(c2)Sc2ncccc2C(=O)N3CC)CC1  564 s
4. CC(C)n1cnc2cc(CNC(=O)c3ccsc3)ccc21  579 s
5. CCN(CCN(C)C)c1ccc(C(=O)O)cc1NS(=O)(=O)c1ccccc1Cl  582 s
6. CN1C2CC(OC(=O)C(CO)c3ccccc3)CC1C(O)C2 (configuration not stated)  586 s
7. COc1ccc2[nH]c(=O)c(CCC(=O)NC3CCN(Cc4ccccc4)CC3)cc2c1  596 s
8. O=C(NCc1cc(F)cc(F)c1)c1cn2c(n1)CCCC2  599 s
9. Cn1nnnc1SCC(=O)N1CCC(C(=O)NCC(F)(F)F)CC1  600 s
10. Cc1nnsc1C(=O)NCC1(O)CCCC1  602 s
11. CC(C)Cn1c(=O)c(C(=O)NCCc2ccccn2)nc2cccnc21  604 s
12. O=C(NCc1cccc(F)c1)N1CCC(Nc2cccnc2)C1 (configuration not stated)  606 s
13. CN1CCCC1c1nc(C2CN(C(=O)CCc3nc4ccccc4s3)C2)no1 (configuration not stated)  607 s
14. CSc1ccccc1NC(=O)C(=O)NCC1CCN(Cc2cc(C)oc2C)CC1  615 s
15. Cc1cccc(C(=O)NCC(=O)Nc2nc3ccccc3[nH]2)c1  631 s
16. CC(C)(C)NC(=O)NC1CCN(C(=O)C2CCC2)C1 (configuration not stated)  636 s
17. Cc1ccc(C(=O)NCC2CCCO2)cc1 (configuration not stated)  642 s
18. Cc1ccccc1NC(=O)N1CCC(c2cc(N)on2)CC1  644 s
19. O=C(c1ccc2nsnc2c1)N1CCN(S(=O)(=O)C2CC2)CC1  657 s
20. COC(=O)c1cnc2nc(C)ccc2c1NCc1ccc2c(c1)OCO2  659 s
21. COCCNCc1ccc(-c2cccc(C(F)(F)F)c2)o1  662 s
22. CCN(CC)CCNC(=O)C1CCCN(c2ccc(Sc3ccc(Br)cc3)nn2)C1 (configuration not stated)  664 s
23. CCOc1ccc(S(=O)(=O)Nc2cccc(-c3cn4cccc(C)c4n3)c2)cc1  666 s
24. CCN1CCCC1CNC(=O)C1CCN(S(=O)(=O)c2ccc(-c3noc(C4CC4)n3)cc2)CC1 (configuration not stated)  679 s
25. CCOc1ccccc1C(=O)Nc1c(-c2ccccc2)nc2ccccn12  685 s
26. CCc1ccc(S(=O)(=O)c2ccccc2)cc1S(=O)(=O)NCCCN(C)C  687 s
27. Cc1ccn2cc(C(=O)N3CCN(c4cccc(Cl)c4)CC3)nc2c1  692 s
28. CCOc1ccc(C2C(C(=O)OCCOC)=C(C)NC3=C2C(=O)CCC3)cc1OC (configuration not stated)  700 s
29. CN1C(=O)C(=C2CCCC2)c2cc(S(=O)(=O)N3CCN(c4ccccn4)CC3)ccc21  710 s
30. COc1ccc(CNC(=O)C2CCCN(c3cnc4nccnc4c3)C2)cc1OC (configuration not stated)  710 s
31. COc1ccc(NC(=O)C2CCN(c3cnc4nc(C)c(C)nc4c3)CC2)cc1F  718 s
32. CC(C)C(=O)Nc1ccc(C2(C(=O)O)CCC2)cc1  720 s
33. Cc1ccc2c(c1)C(=O)NC1(CCN(C(=O)c3ccc4c(c3)OCO4)CC1)N2C  721 s
34. Cc1ccc(-n2nc(C)c(S(=O)(=O)N3CCN(c4ccccn4)CC3)c2C)cc1  721 s
35. Cc1cnc(C(=O)NC2C[C@H]3CC[C@@H](C2)N3S(=O)(=O)c2c(C)noc2C)cn1 (some centres not stated)  726 s
36. COc1ccccc1C(=O)N1CCC2(CC1)NC(=O)c1cc(C)ccc1N2C  732 s
37. CCOc1cc(=O)n2c(c1C(=O)NC1CCCCC1)CCCCC2  734 s
38. Cc1ccc(-c2cc3c(=O)n(Cc4noc(CN5CCC(C)CC5)n4)ccn3n2)cc1C  742 s
39. COC[C@@H]1CN(C(=O)c2cc(C)oc2C)C[C@H]1c1nc(C)no1  748 s
40. Cc1cccc(CNC2=NCCNC23CCN(S(=O)(=O)c2ccccc2C)CC3)c1  752 s
41. O=C(Cc1ccc([N+](=O)[O-])cc1)NC1CC(=O)N(c2ccc(Cl)cc2)C1 (configuration not stated)  760 s
42. O=C(NCC1(O)CCc2ccccc21)Nc1ccccc1Cl (configuration not stated)  762 s
43. Cc1cc(=O)n(CC(=O)NCc2ccccc2Cl)c(N(C)Cc2ccccc2)n1  762 s
44. COc1ccc(/C=C/C(=O)Oc2cc(O)cc(O)c2)cc1  763 s
45. O=C(Nc1ccc(-n2cnnn2)cc1)c1csc(Nc2ccccc2)n1  777 s
46. Cc1cccc(Nc2c(-c3ccc(C(=O)O)cc3)nc3cnccn23)c1C  780 s
47. CCOc1ccc(-c2cn3ccn(-c4ccc(OC)c(OC)c4)c(=O)c3n2)cc1  781 s
48. Cc1ccsc1C(=O)NCC1Cn2cccc2C(=O)N1CC(C)C (configuration not stated)  783 s
49. O=C(c1ccccc1)N1CCN(S(=O)(=O)c2cc3c4c(c2)CCC(=O)N4CCC3)CC1  789 s
50. Cc1ccc(-c2cn3cccnc3n2)cc1NC(=O)CCC1CCCCC1  789 s
51. O=C(c1ccc2ccnc(N3CCN(c4ccc(F)cc4)CC3)c2c1)N1CCCCC1  792 s
52. O=C(CCc1ccc2[nH]ccc2c1)NCc1ccc(F)cc1  793 s
53. Cc1ccc(CNC(=O)c2cc(C)no2)cc1  793 s
54. CC(C)NC(=O)C1(C)CC(c2ccccc2)=NO1 (configuration not stated)  799 s
55. COc1cc(CNC(=O)c2cccc3c2CCN3C(=O)C2CC2)cc(OC)c1  809 s
56. COC(=O)c1cc2n(n1)CC(C)(C(=O)NC1CCC(C)CC1)N(Cc1ccccc1)C2=O (configuration not stated)  816 s
57. N#Cc1ccc(N2C=C(C(=O)N3CCCCC3)S(=O)(=O)c3ccc(F)cc32)cc1  824 s
58. CCC(C(=O)NCCOC)n1nc(C)c2sc3ccccc3c2c1=O (configuration not stated)  826 s
59. CC1CCN(C(=O)Cn2nc(C(=O)N3CCCC3)c3ccccc32)CC1  846 s
60. CCSc1ccccc1C(=O)NCc1nc(COc2ccc(OC)cc2)no1  848 s
61. O=c1ccc(N2CCCN(S(=O)(=O)c3cc(F)ccc3F)CC2)nn1-c1ccccc1  853 s
62. COc1ccc(CC(=O)N2CCCC2c2cc(C(C)C)no2)cc1 (configuration not stated)  868 s
63. Cc1nnsc1C(=O)Nc1ccc([N+](=O)[O-])cc1C(F)(F)F  868 s
64. Cn1ncc2c3ccccc3n(CC(=O)N3CCN(c4ccc(F)cc4)CC3)c2c1=O  875 s
65. Cc1noc(-c2cccc(OC3CN(C(=O)NCCc4ccccc4)C3)c2)n1  879 s
66. Cc1ccc(Sc2nccnc2N2CCC(C(=O)N3CCOCC3)CC2)cc1  881 s
67. COc1ccc(-c2nn3c(-c4ccc5ccccc5n4)nnc3s2)cc1OC  886 s
68. COc1ccc2[nH]c3c(c2c1)CCN1C(=O)N(CCc2ccc(OC)c(OC)c2)C(=O)C31C (configuration not stated)  888 s
69. CN(C)c1ccc(C(=O)NC(Cc2ccccc2)c2nnc(N3CCCCC3)o2)cc1 (configuration not stated)  889 s
70. CCc1cccc(Nc2ncccc2S(N)(=O)=O)c1  889 s
71. Cc1ccc(NC(=O)N2CCCC2c2cc(C)on2)c(Cl)c1 (configuration not stated)  897 s
72. CCOC(=O)C1CCN(c2cc3c(cc2NC(=O)C2CCCCC2)n(C)c(=O)c(=O)n3C)CC1  906 s
73. CCc1nnc2ccc(-c3noc(-c4ccccc4)n3)cn12  906 s
74. CN1c2cc(F)ccc2C(=O)NC12CCN(C(=O)Cc1ccc(Cl)cc1)CC2  919 s
75. Cc1nn(-c2ccccc2)c(C)c1S(=O)(=O)N1CCC(C(=O)Nc2ccc(F)cc2)CC1  948 s
76. Cc1ccc(NC(=O)Cn2nc(N(C)C)c3ccccc3c2=O)cc1Cl  958 s
77. COc1cccc(Nc2c(-c3ccc(Cl)cc3)nc3cnccn23)c1  961 s
78. CCCCN(C)CCCNC(=O)C1CCN(S(=O)(=O)CCC)CC1  968 s
79. Cc1noc(-c2ccnc(-n3ncc(C(=O)NC4CCCCCC4)c3C)c2)n1  968 s
80. CCCCNC(=O)COc1c(C)cc(Br)cc1C  1000 s
81. CCn1cc(C)c(C(=O)O)c1CC(=O)Nc1ccc(Cl)cc1  1010 s
82. Cc1ccc(CNC(=O)C2(C)CCCN(C(=O)Nc3ccccc3C(F)(F)F)C2)cc1 (configuration not stated)  1010 s
83. Cc1ccc(-c2nc3cnccn3c2Nc2ccc(C)cc2C)cc1  1070 s
84. Cc1noc(-c2nc(-c3cccc(Cl)c3)no2)n1  1070 s
85. CCCNC(=O)c1cnn(-c2ccc(-c3nc(C(C)(C)C)no3)cn2)c1C  1070 s
86. Cc1nc(-c2cc(S(=O)(=O)Nc3cccc(Cl)c3C)c(C)s2)cs1  1120 s
87. CCc1cccc(C)c1NC(=O)Cn1nc(N2CCC(C)CC2)c2ccccc2c1=O  1160 s
88. CCOC(=O)C1CCN(C(=O)C(C)n2c(=O)c(C(F)(F)F)nc3cc(C)c(C)cc32)CC1 (configuration not stated)  1170 s
89. CN(C)S(=O)(=O)c1ccc(-c2nnc(C(=O)NCCN3CCOCC3)o2)cc1  1270 s
90. CCCN(C(=O)c1ccccc1C)c1nc(-c2ccccc2)cs1  1320 s
91. CCCOc1nc2ccccc2nc1N1CCCC(C(=O)Nc2cc(C)ccc2C)C1 (configuration not stated)  1340 s
92. COc1ccc(-c2nc(-c3ccc(S(=O)(=O)N4CCC(C)CC4)cc3)no2)cc1  1340 s
